# Experimental data as given in patent US11766470B2, “Manufacture, formulation and dosing of apraglutide” (VectivBio AG, priority 2020, dated 2023).
# Square brackets hold non-standard residues; d marks the D form. Peptide text beside a SMILES is read from it. ξ: configuration not given here. Ile(3ξ) = CCC(C)[C@H](N)C(=O)O; Thr(3ξ) = CC(O)[C@H](N)C(=O)O; Nle = CCCC[C@H](N)C(=O)O
# Tested on: patients with SBS-IF
# Assay: Phase 2 placebo-controlled crossover trial in SBS-IF patients (Example 5): urine output, urine sodium, PS volume, oral fluid intake, hydration parameters, plasma L-citrulline, body composition
# Type: in vivo, human
# Conditions: for Fluid composite effect (increase urine production + reduction PS volume + reduction oral fluid intake): post-hoc
# Experimental: The following non-limiting example describes results from a Phase 2 clinical trial in which subjects with SBS-IF were treated with the apraglutide formulations of the present disclosure. This Phase 2 trial investigated the safety and efficacy of 5 and 10 mg apraglutide in patients with SBS-IF.
# Eight adult patients with SBS-IF were treated with apraglutide compositions of the present disclosure according to Table 6. Briefly, patients with SBS-IF were administered 5 mg apraglutide of the present disclosure or placebo once a week for four weeks. The patients were then administered 10 mg apraglutide of the present disclosure once a week for four weeks. Additionally, there was a washout period of 6-10 weeks between treatments.
# The trial described in Example 5 was a double-blind, crossover, randomized, placebo-controlled, phase 2 trial followed by an additional treatment period in an open-label regimen. Eight adult patients (aged ≥18 to ≤80 years) with SBS-IF were enrolled in the trial. Patient eligibility was assessed during a screening visit. The main inclusion criteria were: Patients with SBS secondary to surgical resection of the small bowel with a jejuno- or ileostomy, at least 6 months since last bowel resection, a fecal output of at least 1500 g/day as recorded within the last 18 months, and PS-infusions≥3 times per week for ≥12 months according to the patient's medical record. Patients were excluded, if they had clinical signs of activity in inflammatory bowel disease, a history of cancer within ≤5 years or an inadequate hepatic, kidney, or heart function. Patients were also excluded, if they had received native GLP-2 or a GLP-2 analogue within the last 3 months.
# The procedures during each treatment period were consistent.
# Efficacy assessments were performed for each treatment period of 29 days. Patients received a paper diary for recording PS volume administration, urine collections and oral fluid intakes at specific time points. Patients performed home 48-hour urine collections at baseline (day −2 to 1), immediately after first treatment injection (day 1 to 3), and at the end of the treatment period (day 27-29, […] after the fourth administration of the trial drug). Urine was collected by the patient in a urine container with volume markings and 48-hour urine volumes were reported in the diary. After completing the 48-hour collection, patients transferred approximately 100 mL of urine from the container to a sample which was delivered at the next patient visit. The amount of sodium excreted per 48 hours was then calculated as the concentration of sodium in the sample multiplied by the total volume of urine collected. During each urine collection, weekly PS volume and content and daily oral fluid intake were kept constant. Since they were kept constant, increases in urine volume were a sign of increased fluid absorption. […] Patients were to adhere to their drinking menu during each urine collection and the concomitant 48-hour oral fluid intake was reported in the diary during each urine collection.
# On day 20-22, patients were informed to record their spontaneous oral fluid intake during 48 hours. This measurement was included to investigate whether increased intestinal absorption was associated with a decrease in their spontaneous oral fluid intake.
# Between day 4 and 24, PS volume reductions were allowed if deemed clinically necessary by the investigator. […] PS volume reductions were assessed during day 20-22. Patients returned to their baseline PS volume and content during the end of the treatment urine collection (day 27-29). Concomitant medications including proton-pump inhibitors, loperamide, and opiates were kept unchanged and stable throughout the trial. If necessary, adjustments could be made in the drinking menu and prescribed PS volume and content between treatment periods based on discussions between the patient and the investigator.
# Body weight was measured using a levelled platform scale. […]
# [1] = 5 mg vs placebo, Part A+B, end of treatment
# [2] = 5 mg vs placebo, Part A, day 1-3 after first injection
# [3] = 5 mg vs placebo, Part A, day 20-22
# [4] = 5 mg vs placebo, Part A, day 27-29
# [5] = 5 mg vs placebo, Part A, end of treatment
# [6] = 10 mg vs placebo, Part A+B, day 1-3 after first injection
# [7] = 10 mg vs placebo, Part A+B, day 20-22
# [8] = 10 mg vs placebo, Part A+B, day 27-29
# [9] = 10 mg vs placebo, Part A+B, end of treatment
compound,measurement,setting,value
"CCCC[C@H](NC(=O)[C@H](CCC(=O)O)NC(=O)[C@H](CC(=O)O)NC(=O)[C@H](CO)NC(=O)[C@H](Cc1ccccc1)NC(=O)[C@H](CO)NC(=O)CNC(=O)[C@H](CC(=O)O)NC(=O)CNC(=O)[C@@H](N)Cc1c[nH]cn1)C(=O)N[C@H](Cc1ccccc1)C(=O)N[C@H](C(=O)N[C@H](C(=O)N[C@@H](CC(C)C)C(=O)N[C@@H](CC(=O)O)C(=O)N[C@@H](CC(C)C)C(=O)N[C@@H](CC(C)C)C(=O)N[C@@H](C)C(=O)N[C@@H](C)C(=O)N[C@@H](CCCNC(=N)N)C(=O)N[C@@H](CC(=O)O)C(=O)N[C@@H](Cc1ccccc1)C(=O)N[C@H](C(=O)N[C@@H](CC(N)=O)C(=O)N[C@@H](Cc1c[nH]c2ccccc12)C(=O)N[C@@H](CC(C)C)C(=O)N[C@H](C(=O)N[C@@H](CCC(N)=O)C(=O)N[C@H](C(=O)N[C@@H](CCCCN)C(=O)N[C@H](C(=O)N[C@H](C(=O)N[C@@H](CC(=O)O)C(N)=O)C(C)O)C(C)CC)C(C)O)C(C)CC)C(C)CC)C(C)CC)C(C)O (stereo partly drawn) [apraglutide, L-histidyl-glycyl-L-aspartyl-glycyl-L-seryl-L-phenylalanyl-L-seryl-L-aspartyl-L-glutamyl-L-norleucyl-D-phenylalanyl-L-threonyl-Lisoleucyl-L-leucyl-L-aspartyl-L-leucyl-L-leucyl-L-alanyl-L-alanyl-L-arginyl-L-aspartyl-L-phenylalanyl-L-isoleucyl-L-asparaginyl-Ltryptophanyl-L-leucyl-L-isoleucyl-L-glutaminyl-L-threonyl-L-lysyl-L-isoleucyl-L-threonyl-Laspartic acid amide] (H-HGDGSFSDE[Nle][dF][Thr(3ξ)][Ile(3ξ)]LDLLAARDF[Ile(3ξ)]NWL[Ile(3ξ)]Q[Thr(3ξ)]K[Ile(3ξ)][Thr(3ξ)]D-NH2)","Relative body weight, adjusted mean change from baseline",[1],3 (0 to 6); %
same,"Relative bone mineral content, adjusted mean change from baseline",[1],0 (−3 to 3); %
same,"Relative fat body mass, adjusted mean change from baseline",[1],10 (1 to 18); %
same,"Relative lean body mass, adjusted mean change from baseline",[1],2 (−5 to 9); %
same,"Relative plasma L-citrulline, adjusted mean change from baseline",[1],65 (15 to 115); %
same,"Urea, adjusted mean change from baseline",[1],−0.9 (−2.4 to 0.6); mmol/L
same,"Absolute urine output, adjusted mean change from baseline",[2],−48 (−696 to 601); mL/day
same,"Relative urine output, adjusted mean change from baseline",[2],5 (−38 to 48); %
same,"Urine sodium excretion (%), adjusted mean change from baseline",[2],64 (−306 to 433); %
same,"Urine sodium excretion, adjusted mean change from baseline",[2],3 (−146 to 152); mmol/day
same,"PS volume, adjusted mean change from baseline",[3],−94 (−344 to 156); P = .356 mL/day
same,"Relative PS volume, adjusted mean change from baseline",[3],−13 (−41 to 15); P = .276%
same,"Relative oral fluid intake, adjusted mean change from baseline",[3],−9 (−18 to 1); P = .068%
same,"Absolute urine output, adjusted mean change from baseline",[4],714 mL/day
same,"Relative urine output, adjusted mean change from baseline",[4],49%
same,"Urine sodium excretion (%), adjusted mean change from baseline",[4],189 (−350 to 729); P = .270%
same,"Urine sodium excretion, adjusted mean change from baseline",[4],66 (−69 to 201); P = .171 mmol/day
same,"Body weight, adjusted mean change from baseline",[5],1.9 (−0.8 to 4.5); kg
same,"Bone mineral content, adjusted mean change from baseline",[5],−4 (−132 to 123); g
same,"Fat body mass, adjusted mean change from baseline",[5],1.74 (−0.36 to 3.83); kg
same,"Lean body mass, adjusted mean change from baseline",[5],0.49 (−4.65 to 5.64); kg
same,"Plasma L-citrulline, adjusted mean change from baseline",[5],17.7 (−6.3 to 41.7); μmol/L
same,"Relative body weight, adjusted mean change from baseline",[5],3 (−1 to 7); %
same,"Relative bone mineral content, adjusted mean change from baseline",[5],0 (−6 to 6); %
same,"Relative fat body mass, adjusted mean change from baseline",[5],9 (−5 to 24); %
same,"Relative lean body mass, adjusted mean change from baseline",[5],2 (−11 to 15); %
same,"Relative plasma L-citrulline, adjusted mean change from baseline",[5],66 (−13 to 145); %
same,Fluid composite effect (increase urine production + reduction PS volume + reduction oral fluid intake),"5 mg vs placebo, Part A+B","1,036 mL/day"
same,"Absolute urine output, adjusted mean change from baseline",[6],−64 (−500 to 372); mL/day
same,"Relative urine output, adjusted mean change from baseline",[6],−6 (−37 to 24); %
same,"Urine sodium excretion (%), adjusted mean change from baseline",[6],22 ( −75 to 119); %
same,"Urine sodium excretion, adjusted mean change from baseline",[6],3 (−17 to 22); mmol/day
same,"Relative PS volume, adjusted mean change from baseline",[7],−28 (−51 to −4); %
same,"Relative oral fluid intake, adjusted mean change from baseline",[7],−15 (−25 to −5); %
same,"Absolute urine output, adjusted mean change from baseline",[8],"795 (195 to 1,394); mL/day"
same,"Relative urine output, adjusted mean change from baseline",[8],34 (−4 to 71); %
same,"Urine sodium excretion (%), adjusted mean change from baseline",[8],432 ( −87 to 951); %
same,"Urine sodium excretion, adjusted mean change from baseline",[8],88 (20 to 156); mmol/day
same,"Albumin, adjusted mean change from baseline",[9],1.0 (−0.9 to 2.9); g/L
same,"Body weight, adjusted mean change from baseline",[9],1.3 (−0.6 to 3.2); kg
same,"Bone mineral content, adjusted mean change from baseline",[9],8 (−64 to 81); g
same,"CO2 total, adjusted mean change from baseline",[9],1.3 (−1.1 to 3.7); mmol/L
same,"Creatinine, adjusted mean change from baseline",[9],−5.1 (−22.1 to 11.9); umol/L
same,"Fat body mass, adjusted mean change from baseline",[9],0.33 (−1.20 to 1.85); kg
same,"Hematocrit, adjusted mean change from baseline",[9],0.2 (−0.7 to 1.0); vol/fr
same,"Lean body mass, adjusted mean change from baseline",[9],0.76 (−2.47 to 3.99); kg
same,"Plasma L-citrulline, adjusted mean change from baseline",[9],14.0 (−2.3 to 30.3); μmol/L
same,"Protein, adjusted mean change from baseline",[9],−0.7 (−4.7 to 3.3); g/L
same,"Relative body weight, adjusted mean change from baseline",[9],2 (−1 to 5); %
same,"Relative bone mineral content, adjusted mean change from baseline",[9],0 (−3 to 3); %
same,"Relative fat body mass, adjusted mean change from baseline",[9],2 (−7 to 11); %
same,"Relative lean body mass, adjusted mean change from baseline",[9],2 (−6 to 9); %
same,"Relative plasma L-citrulline, adjusted mean change from baseline",[9],42 (−10 to 94); %
same,"Urea, adjusted mean change from baseline",[9],−0.6 (−2.2 to 1.0); mmol/L
same,Fluid composite effect (increase urine production + reduction PS volume + reduction oral fluid intake),"10 mg vs placebo, Part A+B","1,630 mL/day"
